Source: patent US20140190599A1 (priority 2004, published 2014)

System: rat
Conditions: in vivo

Structure (SMILES): NNCCO.O=[N+]([O-])O [HEHN, 2-hydroxyethyl hydrazinium nitrate]
- LD50rat: 325 mg/kg

Structure (SMILES): NN [Hydrazine]
- LD50rat: 60 mg/kg
